Test results as given in patent publication US20220056043A1, “NITROGEN-CONTAINING FUSED CYCLIC COMPOUND, PREPARATION METHOD THEREFOR AND USE THEREOF” (SICHUAN KELUN-BIOTECH BIOPHARMACEUTICAL CO., LTD., priority 2019, published 2022).

Experiments:
[1] = biological target: T1, hTLR8 (Homo sapiens, UniProt Q9NR97); test: Agonistic effect on hTLR8, HEK-Blue hTLR8 cells, alkaline phosphatase secretion; type: cell-based; details: 16 hours
T1 construct: host or cells: HEK-Blue hTLR8 cells
T1 sequence (Q9NR97 27-1041): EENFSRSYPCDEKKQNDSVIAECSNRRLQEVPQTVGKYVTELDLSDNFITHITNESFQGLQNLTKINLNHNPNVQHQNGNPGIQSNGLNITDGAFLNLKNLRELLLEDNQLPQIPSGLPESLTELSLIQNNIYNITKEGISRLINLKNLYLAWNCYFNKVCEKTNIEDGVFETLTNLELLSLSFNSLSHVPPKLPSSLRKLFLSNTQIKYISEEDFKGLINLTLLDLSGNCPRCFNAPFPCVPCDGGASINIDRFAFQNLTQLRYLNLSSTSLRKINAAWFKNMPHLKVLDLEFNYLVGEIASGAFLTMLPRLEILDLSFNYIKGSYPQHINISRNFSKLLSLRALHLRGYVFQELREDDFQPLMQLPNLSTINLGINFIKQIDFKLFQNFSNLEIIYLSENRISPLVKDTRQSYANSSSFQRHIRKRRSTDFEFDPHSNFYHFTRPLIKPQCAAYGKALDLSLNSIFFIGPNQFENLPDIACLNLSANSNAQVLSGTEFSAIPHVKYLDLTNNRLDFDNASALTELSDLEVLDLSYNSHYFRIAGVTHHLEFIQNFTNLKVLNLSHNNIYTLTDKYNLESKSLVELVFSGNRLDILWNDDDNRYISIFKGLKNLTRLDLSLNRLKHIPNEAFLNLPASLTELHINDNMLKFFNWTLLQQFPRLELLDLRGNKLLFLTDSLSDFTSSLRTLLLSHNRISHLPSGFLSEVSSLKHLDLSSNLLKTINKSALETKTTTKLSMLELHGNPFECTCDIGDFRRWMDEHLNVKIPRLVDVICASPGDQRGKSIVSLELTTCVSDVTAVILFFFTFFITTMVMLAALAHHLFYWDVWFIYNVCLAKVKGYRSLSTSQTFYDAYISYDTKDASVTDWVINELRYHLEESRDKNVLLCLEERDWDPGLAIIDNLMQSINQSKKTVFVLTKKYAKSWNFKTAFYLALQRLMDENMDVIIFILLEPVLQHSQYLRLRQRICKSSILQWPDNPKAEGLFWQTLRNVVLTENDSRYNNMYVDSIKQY
How it was run: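 HEK-Blue hTLR8 reporter cells were treated with compound (diluted from 10 mM DMSO stock) for 16 h at 37 °C in DMEM/10% FBS. Secreted alkaline phosphatase in supernatant was detected with QUANTI-Blue after 3 h at 37 °C, read at OD620. EC50 came from a four-parameter variable-slope fit.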

[2] = biological target: T2, hERG potassium channel (Homo sapiens, UniProt Q12809)
[3] = biological target: T2, hERG potassium channel; test: in vitro
[4] = biological target: T2, hERG potassium channel; test: cell-based
[5] = biological target: T3, CYP1A2 (Homo sapiens, UniProt P05177); test: CYP enzyme inhibition test, P450-Glo CYP1A2 Screening System; type: in vitro ADME; details: for inhibitory effect on CYP1A2: conclusion in words
T3 construct: purchased
T3 sequence (P05177 1-516): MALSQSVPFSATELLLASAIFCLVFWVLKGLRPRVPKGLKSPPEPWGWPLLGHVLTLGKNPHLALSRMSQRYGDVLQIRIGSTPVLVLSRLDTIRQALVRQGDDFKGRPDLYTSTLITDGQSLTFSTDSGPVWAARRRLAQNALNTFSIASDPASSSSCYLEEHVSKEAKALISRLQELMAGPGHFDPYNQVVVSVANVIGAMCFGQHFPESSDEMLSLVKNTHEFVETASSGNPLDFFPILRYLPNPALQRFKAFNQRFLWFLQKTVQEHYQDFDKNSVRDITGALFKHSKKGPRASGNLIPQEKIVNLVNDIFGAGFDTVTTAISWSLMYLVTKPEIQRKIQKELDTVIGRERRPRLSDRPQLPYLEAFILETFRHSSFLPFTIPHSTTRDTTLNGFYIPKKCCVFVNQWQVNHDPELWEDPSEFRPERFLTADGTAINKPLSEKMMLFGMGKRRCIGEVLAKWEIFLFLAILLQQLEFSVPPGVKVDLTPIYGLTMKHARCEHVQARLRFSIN
Protocol: (§1) Experimental Example 6: CYP Enzyme Inhibition Test CYP450 is the most important enzyme system in drug metabolism. The enzymes involved in metabolism interact with drugs, and the most important ones are CYP1A2, CYP2D6 and CYP3A4. P450-Glo™ CYP1A2 Screening System, Vivid® CYP2D6 Cyan Screening Kit and Vivid® CYP3A4 Red Screening Kit were used in this test, and the inhibitory effects of the compounds on CYP1A2, CYP2D6 and CYP3A4 were determined according to the instructions of the kit.

[6] = biological target: T4, CYP2D6 (Homo sapiens, UniProt P10635); test: CYP enzyme inhibition test, Vivid CYP2D6 Cyan Screening Kit; type: in vitro ADME; details: for inhibitory effect on CYP2D6: conclusion in words
T4 construct: purchased
Protocol: as §1

[7] = biological target: T5, CYP3A4 (Homo sapiens, UniProt P08684); test: CYP enzyme inhibition test, Vivid CYP3A4 Red Screening Kit; type: in vitro ADME; details: for inhibitory effect on CYP3A4: conclusion in words
T5 construct: purchased
Protocol: as §1

T2 sequence (Q12809 whole entry): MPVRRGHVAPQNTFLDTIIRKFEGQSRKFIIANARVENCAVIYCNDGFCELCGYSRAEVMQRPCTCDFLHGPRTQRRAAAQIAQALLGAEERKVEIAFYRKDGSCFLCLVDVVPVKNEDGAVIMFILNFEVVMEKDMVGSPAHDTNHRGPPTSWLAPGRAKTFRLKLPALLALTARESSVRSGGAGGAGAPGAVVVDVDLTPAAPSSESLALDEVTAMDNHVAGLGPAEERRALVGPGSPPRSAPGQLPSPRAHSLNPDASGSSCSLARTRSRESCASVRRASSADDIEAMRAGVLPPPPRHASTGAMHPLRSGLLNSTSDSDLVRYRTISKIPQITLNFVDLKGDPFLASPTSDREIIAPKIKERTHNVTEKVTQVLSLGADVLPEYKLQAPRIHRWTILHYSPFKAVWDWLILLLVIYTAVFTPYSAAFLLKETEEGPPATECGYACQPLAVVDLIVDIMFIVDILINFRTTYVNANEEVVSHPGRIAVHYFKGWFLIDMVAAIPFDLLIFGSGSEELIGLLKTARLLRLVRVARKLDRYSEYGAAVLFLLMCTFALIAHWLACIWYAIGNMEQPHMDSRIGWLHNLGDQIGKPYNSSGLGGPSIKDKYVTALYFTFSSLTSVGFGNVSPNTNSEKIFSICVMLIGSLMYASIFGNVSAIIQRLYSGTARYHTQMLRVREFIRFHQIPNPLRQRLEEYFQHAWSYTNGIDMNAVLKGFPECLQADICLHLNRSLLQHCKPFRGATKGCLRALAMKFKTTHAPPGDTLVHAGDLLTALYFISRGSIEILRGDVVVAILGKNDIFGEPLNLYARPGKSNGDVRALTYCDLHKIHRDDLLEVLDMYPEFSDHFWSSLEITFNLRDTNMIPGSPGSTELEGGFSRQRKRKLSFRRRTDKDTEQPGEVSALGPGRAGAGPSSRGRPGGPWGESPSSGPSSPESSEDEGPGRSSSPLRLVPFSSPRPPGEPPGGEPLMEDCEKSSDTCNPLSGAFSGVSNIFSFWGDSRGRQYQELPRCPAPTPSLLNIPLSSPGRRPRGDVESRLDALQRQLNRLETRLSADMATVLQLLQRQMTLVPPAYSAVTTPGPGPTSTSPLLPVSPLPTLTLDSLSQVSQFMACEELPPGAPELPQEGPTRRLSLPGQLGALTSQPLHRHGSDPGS
T5 sequence (P08684 whole entry): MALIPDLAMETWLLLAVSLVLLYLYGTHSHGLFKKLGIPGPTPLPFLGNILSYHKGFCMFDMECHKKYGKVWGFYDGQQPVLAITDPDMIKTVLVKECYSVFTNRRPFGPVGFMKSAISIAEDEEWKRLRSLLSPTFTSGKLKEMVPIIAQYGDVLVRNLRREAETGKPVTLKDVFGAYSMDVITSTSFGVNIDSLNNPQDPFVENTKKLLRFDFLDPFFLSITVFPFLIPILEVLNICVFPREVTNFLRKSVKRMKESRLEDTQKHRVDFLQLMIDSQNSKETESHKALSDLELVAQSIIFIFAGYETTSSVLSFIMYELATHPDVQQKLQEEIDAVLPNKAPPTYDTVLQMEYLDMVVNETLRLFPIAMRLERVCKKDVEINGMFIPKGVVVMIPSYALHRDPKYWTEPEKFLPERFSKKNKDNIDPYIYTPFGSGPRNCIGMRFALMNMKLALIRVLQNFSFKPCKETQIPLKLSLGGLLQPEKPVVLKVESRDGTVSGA
T4 sequence (P10635 whole entry): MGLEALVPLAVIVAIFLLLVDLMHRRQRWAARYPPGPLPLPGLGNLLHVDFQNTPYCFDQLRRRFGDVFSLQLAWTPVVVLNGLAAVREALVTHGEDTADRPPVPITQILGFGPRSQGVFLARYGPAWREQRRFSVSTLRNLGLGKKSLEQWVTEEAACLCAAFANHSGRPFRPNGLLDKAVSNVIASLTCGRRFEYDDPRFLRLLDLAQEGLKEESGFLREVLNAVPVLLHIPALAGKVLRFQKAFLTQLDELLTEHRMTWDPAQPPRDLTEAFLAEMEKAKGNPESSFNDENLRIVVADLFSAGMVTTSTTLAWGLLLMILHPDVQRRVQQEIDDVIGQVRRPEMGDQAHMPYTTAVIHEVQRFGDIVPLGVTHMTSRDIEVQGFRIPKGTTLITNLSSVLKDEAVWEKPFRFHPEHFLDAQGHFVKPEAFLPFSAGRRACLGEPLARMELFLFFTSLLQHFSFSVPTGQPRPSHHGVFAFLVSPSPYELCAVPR

| EC50 [1] | IC50 [5] | inhibitory effect on CYP1A2 [5] | IC50 [6] | inhibitory effect on CYP2D6 [6] | IC50 [7] | inhibitory effect on CYP3A4 [7] | Structure (SMILES) | inhibitory effect on hERG [2] | inhibition at 10 μM [3] | IC50 [4] |
| --- | --- | --- | --- | --- | --- | --- | --- | --- | --- | --- |
| > 100 µM | – | – | – | – | – | – | Nc1cc(N[C@@H]2CC[C@@H](O)C2)c2sc(-c3ccn[nH]3)cc2n1 [Compound 30, (1R,3R)-3-((5-amino-2-(1H-pyrazol-5-yl)thieno[3,2-b]pyridin-7-yl)amino)cyclopentanol] | no apparent inhibitory effect | 1.91 ± 1.4% | > 10 µM |
| > 100 µM | > 10 µM | no apparent inhibitory effects | > 10 µM | no apparent inhibitory effects | > 10 µM | no apparent inhibitory effects | C[C@@H]1CN(CCNc2cc(N)nc3cc(-c4ccn[nH]4)sc23)C[C@@H](C)O1 [Compound 124, N^7-(2-((2R,6R)-2,6-dimethylmorpholino)ethyl)-2-(1H-pyrazol-5-yl)thieno[3,2-b]pyridine-5,7-diamine] | – | – | – |
| > 100 µM | > 10 µM | no apparent inhibitory effects | > 10 µM | no apparent inhibitory effects | > 10 µM | no apparent inhibitory effects | C[C@@H](CCO)Nc1cc(N)nc2cc(-c3ccn[nH]3)sc12 [Compound 125, (S)-3-((5-amino-2-(1H-pyrazol-5-yl)thieno[3,2-b]pyridin-7-yl)amino)butanol] | – | – | – |
